Experimental findings from patent US5208227A, “Method, compositions, and compounds for modulating brain excitability” (priority 1991, dated 1993) are described below.

Structures are written as SMILES.

Data set [1] addresses T1, progesterone receptor (Rattus norvegicus, UniProt Q63449).
T1 sequence (Q63449 1-923): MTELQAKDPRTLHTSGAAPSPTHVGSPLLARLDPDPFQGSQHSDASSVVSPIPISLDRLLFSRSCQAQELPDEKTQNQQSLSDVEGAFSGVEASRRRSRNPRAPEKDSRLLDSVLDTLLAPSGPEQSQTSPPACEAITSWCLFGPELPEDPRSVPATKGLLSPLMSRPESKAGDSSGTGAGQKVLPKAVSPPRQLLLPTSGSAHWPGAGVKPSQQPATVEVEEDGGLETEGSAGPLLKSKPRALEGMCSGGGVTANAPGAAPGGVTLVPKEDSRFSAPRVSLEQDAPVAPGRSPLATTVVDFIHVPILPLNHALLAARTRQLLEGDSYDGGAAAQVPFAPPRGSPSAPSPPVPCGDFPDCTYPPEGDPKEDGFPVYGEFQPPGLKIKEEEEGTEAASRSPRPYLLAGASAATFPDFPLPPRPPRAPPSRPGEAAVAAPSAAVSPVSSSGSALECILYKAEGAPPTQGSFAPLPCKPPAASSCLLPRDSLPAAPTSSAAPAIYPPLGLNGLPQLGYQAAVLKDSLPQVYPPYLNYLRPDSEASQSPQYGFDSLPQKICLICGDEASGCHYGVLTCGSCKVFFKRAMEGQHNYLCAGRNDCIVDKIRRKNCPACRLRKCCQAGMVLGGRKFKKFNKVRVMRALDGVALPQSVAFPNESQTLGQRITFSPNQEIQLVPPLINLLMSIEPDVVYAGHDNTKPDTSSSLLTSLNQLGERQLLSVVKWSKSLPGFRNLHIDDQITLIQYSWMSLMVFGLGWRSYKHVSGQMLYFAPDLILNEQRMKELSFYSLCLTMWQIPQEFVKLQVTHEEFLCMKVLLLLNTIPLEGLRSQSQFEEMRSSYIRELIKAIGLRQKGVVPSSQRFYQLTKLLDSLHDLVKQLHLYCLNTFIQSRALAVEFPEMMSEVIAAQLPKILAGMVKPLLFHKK
Put plainly: [3H]R5020 binding to the progesterone receptor in rat uterus. The conditions noted are these: FIG. 5. The text has this:
The data plotted in FIG. 5 were obtained by performing assays in accordance with the procedures outlined above to determine the effect of progesterone metabolites and the progestin R5020 on the binding of [^3 H]R5020 to the progesterone receptor in rat uterus. All points on the plot of FIG. 5 represent the mean of triplicate determinations. The following compounds are those listed in FIG. 5: 5-alpha-pregnan-3-alpha-ol-20-one (DHP), 5-alpha-pregnan-3-alpha,21-diol-20-one (Th-DOC), and 5-beta-pregnane-3-alpha,20 diol (5 BETA).

Data set [2] has as its system GBR complex ([35S]TBPS site). Description: dissociation kinetics of [35S]TBPS in cortical P2 homogenates. The conditions noted are these: for effect on dissociation mechanism/kinetics of [35S]TBPS (in words): pentobarbital 30 micromolar, alphaxalone 300 nanomolar, 5-alpha-pregnan-3-alpha-hydroxy-20-one 20 nanomolar. Format: binding, rat. The method, then:
An assay was performed to determine the effect of pentobarbital on the dissociation kinetics of [^35 S]TBPS in rat cerebral cortical membranes. This assay was performed in accordance with the procedures outlined above. […] Dissociation of bound [^35 S]TBPS was initiated by 2 micromolar TBPS in all cases.

Data set [3] concerns (+)bicuculline-induced seizures in mice. Put plainly: animal or person. Format: in vivo. How it is done: (§1) Experiments were also performed to determine the physiological relevance of these interactions by measuring the ability of the compounds of and used in the invention to modulate TBPS-induced convulsions in Swiss-Webster mice. […] The time to onset of myoclonus (presence of forelimb clonic activity) induced by TBPS was determined by observing each mouse for a period of 45 minutes. Significant differences between the time to onset in control mice vs. steroid-treated mice were determined by Student's t-test. […] The number of animals with tonic and/or clonic convulsions was recorded. In the maximal electroshock test, 50 mA of current at 60 Hz was delivered through corneal electrodes for 200 msec. […] The ED50 (the dose at which the half-maximal effect occurs) dose was determined for each screen.

Data set [4] has as its system metrazol-induced convulsions in mice. Put plainly: metrazol-induced convulsions. Format: in vivo. The conditions noted are these: Mus musculus, metrazol 85 mg/kg, 95% confidence limits, read-out: MTZ (metrazol) ED50. The method, then: as §1
Data set [5] in a line: acute LD50. To be noted: mouse, in vivo.
The subject of data set [6] is mice. Description: acute LD50. The conditions noted are these: mice.
In data set [7] the test system is strychnine-induced convulsions in mice. Put plainly: strychnine-induced convulsions. The conditions noted are these: Mus musculus, read-out: STR (strychnine) ED50. It counts as in vivo. How it is done: as §1
The subject of data set [8] is mice. Description: rotorod test (sedative potential). For orientation: Falling from the rotarod earlier than controls is read as motor impairment.
In data set [9] the test system is BZ receptor. Put plainly: modulation of [3H] flunitrazepam binding. More on the design: species or system rat. To be noted: pentobarbital 1.0 millimolar; 0.25 nM [3H]FLU; absence of GABA.
The test system of data set [10] is picrotoxin-induced convulsions in mice. Description: picrotoxin-induced convulsions. It counts as in vivo. To be noted: Mus musculus, read-out: PICRO (picrotoxin) ED50. How it is done:
as §1

With `CC(=O)[C@H]1CC[C@H]2[C@@H]3CC[C@H]4C[C@H](O)CC[C@]4(C)[C@H]3CC[C@]12C` [3α-hydroxy-5α-pregnan-20-one], the “affinity for the progesterone receptor” value in data set [1] is listed as “lack of affinity”. Also, the “Total percentage of specific sites, rapidly dissociating (R)” value in data set [2] ((**P < 0.01 vs control), alphaxalone 300 nM, 3a-OH-DHP 20 nM) turned out to be 35 ± 3 percentage. Further, in data set [2] ((*P < 0.05 vs control), alphaxalone 300 nM, 3a-OH-DHP 20 nM), the “Total percentage of specific sites, slowly dissociating (S)” value stood at 68 ± 3 percentage. In addition, in [2] ([35S]TBPS dissociation, pentobarbital 30 nM [sic], alphaxalone 300 nM, 3a-OH-DHP 20 nM), the “k-1, slowly dissociating component (S)” value is 0.011 min⁻¹. Besides, the entries for the “effect on dissociation mechanism/kinetics of [35S]TBPS (in words)” value in [2] and in data set [2] (listed as 5-alpha-pregnan-3-alpha-ol-20-one) were “absent” and “do not influence the dissociation kinetics”, respectively. Besides, the ED50 in [3] (Mus musculus, (+)bicuculline 2.7 mg/kg, 95% confidence limits, read-out: BIC (bicuculline) ED50) is 4.1 ± 1.7 mg/kg; in data set [4], 18.8 ± 1.1 mg/kg; in data set [7], more than 300 mg/kg; in data set [10], 31.7 ± 1.1 mg/kg. Further, in data set [3] (compared with clinically useful anticonvulsants, Table 3), the “anticonvulsant effectiveness (in words)” value is given as “highly effective with a profile similar to that of the benzodiazepine clonazepam”. Moreover, the LD50 in data set [5] is more than 500 mg/kg. Besides, in data set [6], the “toxicity (in words)” value is recorded as “very low toxicity”. Also, the “sedative liability at anticonvulsant doses” value in data set [8] (ED50 rotorod versus (+)bicuculline-induced seizures) was “low”. Further, the “Rotorod (RR) ED50” value in [8] (mice, 10 minutes after injection, 6 rpm rod) is recorded as 40-100. Moreover, the “interaction with pentobarbital in enhancement of [3H] flunitrazepam binding” value in [9] is “does not interact with pentobarbital”.

As a reminder, the ED50 is the midpoint of the dose-response relation. The LD50 is the dose expected to kill half of the subjects tested. Read a low LD50 as a more toxic substance.
